Each structure is given as a SMILES string. Where a name gives a salt, the structure may show the parent alone. Read-outs that look alike come from different tables or passages of the source.

One test deals with EGFR L858R/T790M (Homo sapiens, UniProt P00533, L858R/T790M). The test is described as follows: HTRF-based EGFR biochemical assay (L858R/T790M). Particulars: 100 μM ATP, enzyme 0.02 nM. A digest of the protocol:
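Mutant EGFR preincubated 30 min with compound at room temperature, then reacted 20 min with 1 μM biotinylated tyrosine kinase peptide and 100 μM ATP in 50 mM HEPES pH 7.0, 5 mM MgCl2, 1 mM MnCl2, 0.01% BSA, 2 mM TCEP, 0.1 mM NaVO4. Phosphorylation read by HTRF.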
A general note: In TR-FRET formats the signal depends on donor and acceptor labels being close together.

The target in another test is EGFR L858R (Homo sapiens, UniProt P00533, L858R). The test is described as follows: HTRF-based EGFR biochemical assay (L858R). Particulars: 100 μM ATP, enzyme 0.1 nM. A digest of the protocol:
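Reaction started with 100 μM ATP (final) for 20 min, then quenched with EDTA. Phosphorylation detected by HTRF (Eu-cryptate anti-phosphotyrosine/Streptavidin-XL665, 665/620 nm).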

For test [1], the target named is EGFR L858R/T790M mutant Ba/F3 cells (Homo sapiens, UniProt P00533, T790M/L858R, cells depend on it). The experiment in a line: Ba/F3 cell proliferation (Cell Titer Glo). In kind it is cell-based, murine. Particulars: 72 hours. A digest of the protocol: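 Ba/F3 cells retrovirally transduced with the EGFR construct and puromycin-selected (2 μg/ml), grown in RPMI 1640 with 10% FBS. Viability read by Cell Titer Glo luminescence (ATP content), triplicate points, experiments repeated at least three times. Curves fitted by non-linear sigmoidal dose-response regression.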
Sequence of EGFR L858R/T790M mutant Ba/F3 cells (P00533 whole entry T790M/L858R): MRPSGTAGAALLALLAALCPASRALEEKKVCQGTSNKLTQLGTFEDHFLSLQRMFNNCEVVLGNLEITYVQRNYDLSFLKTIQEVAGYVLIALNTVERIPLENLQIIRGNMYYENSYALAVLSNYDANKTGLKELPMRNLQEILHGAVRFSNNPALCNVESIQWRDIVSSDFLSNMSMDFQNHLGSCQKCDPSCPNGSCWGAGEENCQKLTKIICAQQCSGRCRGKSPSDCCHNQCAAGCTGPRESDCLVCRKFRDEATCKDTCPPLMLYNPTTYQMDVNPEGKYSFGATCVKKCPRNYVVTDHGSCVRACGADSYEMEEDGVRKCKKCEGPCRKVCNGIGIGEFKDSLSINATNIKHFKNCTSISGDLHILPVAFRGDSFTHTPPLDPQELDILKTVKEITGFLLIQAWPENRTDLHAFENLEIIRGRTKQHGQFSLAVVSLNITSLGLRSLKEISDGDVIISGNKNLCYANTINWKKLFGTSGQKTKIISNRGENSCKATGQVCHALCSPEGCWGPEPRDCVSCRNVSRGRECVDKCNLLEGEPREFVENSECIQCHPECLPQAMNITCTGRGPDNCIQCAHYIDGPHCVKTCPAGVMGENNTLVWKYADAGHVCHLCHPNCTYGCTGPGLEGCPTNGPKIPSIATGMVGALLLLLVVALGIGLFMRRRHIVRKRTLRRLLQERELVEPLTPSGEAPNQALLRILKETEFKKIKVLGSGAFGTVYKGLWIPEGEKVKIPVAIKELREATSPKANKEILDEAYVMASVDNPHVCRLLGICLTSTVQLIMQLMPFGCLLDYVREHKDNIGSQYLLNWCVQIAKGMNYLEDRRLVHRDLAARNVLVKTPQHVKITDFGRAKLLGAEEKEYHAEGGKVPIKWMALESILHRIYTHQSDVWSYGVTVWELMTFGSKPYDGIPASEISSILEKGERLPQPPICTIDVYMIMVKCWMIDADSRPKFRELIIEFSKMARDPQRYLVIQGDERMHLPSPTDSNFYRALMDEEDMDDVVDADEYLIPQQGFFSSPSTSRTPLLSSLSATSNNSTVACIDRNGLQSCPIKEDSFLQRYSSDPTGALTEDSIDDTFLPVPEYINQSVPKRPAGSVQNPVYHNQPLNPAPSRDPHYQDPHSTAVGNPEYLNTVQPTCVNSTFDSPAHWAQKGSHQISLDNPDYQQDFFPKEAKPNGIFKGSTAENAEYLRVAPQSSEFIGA
On the technique in general: In ATP-based viability assays light output follows the ATP content of the culture.

The mark [2] stands for this setting: in combination with 1 μg/ml cetuximab, read-out: Cell IC50 BaF3 L858R/T790M compound + cetuximab.
[3] abbreviates: single agent, read-out: Cell IC50 EGFR BaF3 L858R/T790M.

Sequence of EGFR L858R (P00533 25-1210 L858R): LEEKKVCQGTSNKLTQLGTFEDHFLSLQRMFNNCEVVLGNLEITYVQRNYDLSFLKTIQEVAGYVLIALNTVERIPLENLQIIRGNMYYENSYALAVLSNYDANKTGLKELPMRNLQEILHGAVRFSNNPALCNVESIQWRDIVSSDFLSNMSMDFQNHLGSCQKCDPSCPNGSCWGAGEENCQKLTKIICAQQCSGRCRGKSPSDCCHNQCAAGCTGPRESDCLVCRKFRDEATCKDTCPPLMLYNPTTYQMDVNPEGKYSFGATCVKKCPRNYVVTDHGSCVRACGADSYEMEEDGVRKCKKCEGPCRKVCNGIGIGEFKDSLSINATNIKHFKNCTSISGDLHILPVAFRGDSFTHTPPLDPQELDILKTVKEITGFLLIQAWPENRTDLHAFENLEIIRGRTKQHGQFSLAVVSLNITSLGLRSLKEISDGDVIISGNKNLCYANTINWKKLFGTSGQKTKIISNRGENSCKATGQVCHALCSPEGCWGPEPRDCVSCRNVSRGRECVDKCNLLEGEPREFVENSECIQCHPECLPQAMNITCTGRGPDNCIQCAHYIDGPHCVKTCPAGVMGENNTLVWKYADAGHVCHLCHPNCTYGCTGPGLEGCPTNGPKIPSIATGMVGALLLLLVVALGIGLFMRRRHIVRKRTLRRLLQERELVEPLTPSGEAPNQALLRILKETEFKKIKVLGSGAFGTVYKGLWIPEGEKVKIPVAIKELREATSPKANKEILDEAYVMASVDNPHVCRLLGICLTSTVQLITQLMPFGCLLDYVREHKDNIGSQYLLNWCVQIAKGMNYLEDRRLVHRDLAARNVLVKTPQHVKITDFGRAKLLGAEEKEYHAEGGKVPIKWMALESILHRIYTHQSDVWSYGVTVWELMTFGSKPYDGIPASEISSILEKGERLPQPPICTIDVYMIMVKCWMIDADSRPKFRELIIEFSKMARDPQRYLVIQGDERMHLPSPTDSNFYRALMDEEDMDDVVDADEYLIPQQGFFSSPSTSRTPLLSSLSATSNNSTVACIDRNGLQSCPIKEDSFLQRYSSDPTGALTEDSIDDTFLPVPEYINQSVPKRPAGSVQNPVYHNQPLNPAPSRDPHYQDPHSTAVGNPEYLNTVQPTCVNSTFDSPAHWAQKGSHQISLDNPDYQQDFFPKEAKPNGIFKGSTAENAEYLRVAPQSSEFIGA
Sequence of EGFR L858R/T790M (P00533 25-1210 T790M/L858R): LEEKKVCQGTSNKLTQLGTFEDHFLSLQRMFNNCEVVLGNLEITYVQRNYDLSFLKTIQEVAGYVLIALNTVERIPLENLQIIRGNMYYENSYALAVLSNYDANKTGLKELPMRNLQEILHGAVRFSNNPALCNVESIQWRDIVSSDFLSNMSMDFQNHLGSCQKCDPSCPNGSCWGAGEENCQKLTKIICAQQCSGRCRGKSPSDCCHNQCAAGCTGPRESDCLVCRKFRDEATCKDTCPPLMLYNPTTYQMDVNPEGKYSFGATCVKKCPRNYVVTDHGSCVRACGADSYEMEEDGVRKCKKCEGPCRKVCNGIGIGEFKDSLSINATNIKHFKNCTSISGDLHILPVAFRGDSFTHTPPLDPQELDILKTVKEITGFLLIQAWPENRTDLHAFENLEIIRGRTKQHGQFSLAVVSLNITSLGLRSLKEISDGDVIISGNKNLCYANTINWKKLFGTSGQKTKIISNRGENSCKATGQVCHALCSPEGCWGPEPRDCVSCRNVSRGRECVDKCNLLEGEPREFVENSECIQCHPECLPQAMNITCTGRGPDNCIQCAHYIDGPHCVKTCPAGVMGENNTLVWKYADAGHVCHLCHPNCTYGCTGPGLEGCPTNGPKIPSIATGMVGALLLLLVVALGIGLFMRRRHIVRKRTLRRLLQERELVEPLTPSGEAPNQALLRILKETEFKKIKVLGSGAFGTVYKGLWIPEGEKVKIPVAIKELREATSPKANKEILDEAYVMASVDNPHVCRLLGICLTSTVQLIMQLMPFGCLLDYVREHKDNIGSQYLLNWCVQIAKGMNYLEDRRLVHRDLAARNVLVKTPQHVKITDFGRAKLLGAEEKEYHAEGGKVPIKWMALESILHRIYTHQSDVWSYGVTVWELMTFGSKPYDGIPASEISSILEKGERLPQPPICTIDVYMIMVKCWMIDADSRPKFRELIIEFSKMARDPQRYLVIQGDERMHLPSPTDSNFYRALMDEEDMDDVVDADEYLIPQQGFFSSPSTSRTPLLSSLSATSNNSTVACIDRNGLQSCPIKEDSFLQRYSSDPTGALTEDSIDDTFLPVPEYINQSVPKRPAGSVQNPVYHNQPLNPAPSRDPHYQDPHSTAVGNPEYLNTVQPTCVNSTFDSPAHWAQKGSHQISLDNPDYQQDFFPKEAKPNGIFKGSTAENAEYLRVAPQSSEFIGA

Turning to `CN1CCN(c2ccc(-c3ccc4ncn(C(C(=O)Nc5nccs5)c5cccnc5)c(=O)c4c3)cc2)CC1` (centres unmarked) [Compound 064, 2-(6-(4-(4-Methylpiperazin-1-yl)-phenyl)-4-oxoquinazolin-3(4H)-yl)-2-(pyridin-3-yl)-N-(thiazol-2-yl)-acetamide], the IC50 (in general, the concentration at which inhibition is half-maximal) on EGFR L858R/T790M was determined as 5 nM; against EGFR L858R, 78 nM. For the same compound, the GI50 in test [1] (setting [2]) amounted to 490 nM; in test [1] (setting [3]) it was 6150 nM.

For the compound `CN1CCC(c2ccc(-c3ccc4ncn(C(C(=O)Nc5nccs5)c5cccnc5)c(=O)c4c3)cc2)CC1` (centres unmarked) [Compound 065, 2-(6-(4-(1-Methylpiperidin-4-yl)-phenyl)-4-oxoquinazolin-3(4H)-yl)-2-(pyridin-3-yl)-N-(thiazol-2-yl)-acetamide], the results for the IC50 at EGFR L858R/T790M and against EGFR L858R were 2 nM and 29 nM, respectively. Moreover, the GI50 in test [1] (setting [2]) amounted to 380 nM; in test [1] (setting [3]), 7810 nM.

With `CN1CCC(c2ccc(-c3ccc4ncn(C(C(=O)Nc5nccs5)c5ccccc5F)c(=O)c4c3)cc2)CC1` (centres unmarked) [Compound 066, 2-(2-Fluorophenyl)-2-(6-(4-(1-methylpiperidin-4-yl)phenyl)-4-oxo-quinazolin-3(4H)-yl)-N-(thiazol-2-yl)-acetamide], the results for the IC50 at EGFR L858R/T790M and against EGFR L858R were 0.2 nM and 2 nM, respectively. Further, the results for the GI50 in test [1] (setting [2]) and in test [1] (setting [3]) were 20 nM and 1880 nM, respectively.

For the compound `CN1CCN(c2ccc(-c3ccc4ncn(C(C(=O)Nc5nccs5)c5ccccc5F)c(=O)c4c3)cc2)CC1` (centres unmarked) [Compound 067, 2-(2-fluorophenyl)-2-(6-(4-(4-methylpiperazin-1-yl)phenyl)-4-oxo-quinazolin-3(4H)-yl)-N-(thiazol-2-yl)-acetamide], the IC50 turned out to be 1 nM against EGFR L858R/T790M and 13 nM against EGFR L858R. The GI50 in test [1] (setting [2]) was found to be 41 nM; in test [1] (setting [3]), 3960 nM.

In the case of `CN1CCC(c2ccc(-c3ccc4ncn(C(C(=O)Nc5nccs5)c5ccccn5)c(=O)c4c3F)cc2)CC1` (centres unmarked) [Compound 068, 2-(5-Fluoro-6-(4-(1-methylpiperidin-4-yl)phenyl)-4-oxoquinazolin-3(4H)-yl)-2-(pyridin-2-yl)-N-(thiazol-2-yl)-acetamide], the IC50 against EGFR L858R/T790M is 0.7 nM; on EGFR L858R, 5 nM. Besides, the figures for the GI50 in test [1] (setting [2]) and in test [1] (setting [3]) were 18 nM and 1560 nM, respectively.

With `CN1CCC(c2ccc(-c3ccc4ncn(C(C(=O)Nc5nccs5)c5cccc(F)c5)c(=O)c4n3)cc2)CC1` (centres unmarked) [Compound 069, 2-(3-Fluorophenyl)-2-(6-(4-(1-methylpiperidin-4-yl)phenyl)-4-oxo-pyrido[3,2-d]pyrimidin-3(4H)-yl)-N-(thiazol-2-yl)acetamide], the IC50 at EGFR L858R/T790M came to 0.5 nM; at EGFR L858R, 7 nM. The GI50 in test [1] (setting [2]) worked out at 28 nM; in test [1] (setting [3]) it was 2810 nM.

For `CN1CCC(c2ccc(-c3ccc4ncn(C(C(=O)Nc5nccs5)c5cccc(F)c5)c(=O)c4c3F)cc2)CC1` (centres unmarked) [Compound 070, 2-(5-Fluoro-6-(4-(1-methylpiperidin-4-yl)phenyl)-4-oxoquinazolin-3-(4H)-yl)-2-(3-fluorophenyl)-N-(thiazol-2-yl)acetamide], the IC50 turned out to be 0.2 nM on EGFR L858R/T790M and 1 nM at EGFR L858R. Further, the GI50 in test [1] (setting [2]) amounted to 5 nM; in test [1] (setting [3]) it was 550 nM.

Consider `CN1CCN(c2ccc(-c3ccc4ncn(C(C(=O)Nc5nccs5)c5ccccc5)c(=O)c4c3F)cc2)CC1` (centres unmarked) [Compound 071, 2-(5-Fluoro-6-(4-(4-methyl-piperazin-1-yl)phenyl)-4-oxo-quinazolin-3(4H)-yl)-2-phenyl-N-(thiazol-2-yl)acetamide], for which the IC50 against EGFR L858R/T790M was 0.7 nM; against EGFR L858R, 5 nM. Also, the GI50 worked out at 20 nM in test [1] (setting [2]) and 2370 nM in test [1] (setting [3]).

Take `CN1CCN(c2ccc(-c3ccc4ncn(C(C(=O)Nc5nccs5)c5ccccc5)c(=O)c4n3)cc2)CC1` (centres unmarked) [Compound 072, 2-(6-(4-(4-Methylpiperazin-1-yl)-phenyl)-4-oxopyrido[3,2-d]-pyrimidin-3(4H)-yl)-2-phenyl-N-(thiazol-2-yl)acetamide]: the IC50 on EGFR L858R/T790M was determined as 1 nM; against EGFR L858R, 12 nM. Moreover, the results for the GI50 in test [1] (setting [2]) and in test [1] (setting [3]) were 55 nM and 1600 nM, respectively.

As to `CN1CCC(c2ccc(-c3ccc4ncn(C(C(=O)Nc5nccs5)c5ccccc5)c(=O)c4n3)cc2)CC1` (centres unmarked) [Compound 073, 2-(6-(4-(1-Methylpiperidin-4-yl)-phenyl)-4-oxopyrido[3,2-d]-pyrimidin-3(4H)-yl)-2-phenyl-N-(thiazol-2-yl)acetamide], the IC50 at EGFR L858R/T790M turned out to be 0.6 nM; at EGFR L858R, 7 nM. Moreover, the GI50 was determined as 15 nM in test [1] (setting [2]) and 1940 nM in test [1] (setting [3]).

Consider `CN1CCC(c2ccc(-c3ccc4ncn(C(C(=O)Nc5ccccn5)c5cccc(F)c5)c(=O)c4c3F)cc2)CC1` (centres unmarked) [Compound 074, 2-(5-Fluoro-6-(4-(1-methylpiperidin-4-yl)phenyl)-4-oxoquinazolin-3-(4H)-yl)-2-(3-fluorophenyl)-N-(pyridin-2-yl)acetamide], for which the IC50 on EGFR L858R/T790M is 0.6 nM; on EGFR L858R it was 6 nM. Besides, the GI50 in test [1] (setting [2]) stood at 22 nM; in test [1] (setting [3]), 2350 nM.

Turning to `CN1CCC(c2ccc(-c3ccc4ncn(C(C(=O)Nc5nccs5)c5ccccc5F)c(=O)c4c3F)cc2)CC1` (centres unmarked) [Compound 075, 2-(5-Fluoro-6-(4-(1-methylpiperidin-4-yl)phenyl)-4-oxoquinazolin-3-(4H)-yl)-2-(2-fluorophenyl)-N-(thiazol-2-yl)acetamide], the IC50 against EGFR L858R/T790M came to 0.1 nM; at EGFR L858R, 1 nM. In addition, the GI50 in test [1] (setting [2]) is 7 nM; in test [1] (setting [3]), 1030 nM.

As for `CN1CCN(c2ccc(-c3ccc4ncn(C(C(=O)Nc5nccs5)c5ccccc5F)c(=O)c4c3F)cc2)CC1` (centres unmarked) [Compound 076, 2-(5-Fluoro-6-(4-(4-methyl-piperazin-1-yl)phenyl)-4-oxo-quinazolin-3(4H)-yl)-2-(2-fluoro-phenyl)-N-(thiazol-2-yl)acetamide], the IC50 is 0.7 nM on EGFR L858R/T790M and 8 nM against EGFR L858R. The GI50 in test [1] (setting [2]) amounted to 44 nM; in test [1] (setting [3]), 3360 nM.

In the case of `COc1cccc(F)c1C(C(=O)Nc1nccs1)n1cnc2ccc(-c3ccc(N4CCN(C)CC4)cc3)cc2c1=O` (centres unmarked) [Compound 077, 2-(2-Fluoro-6-methoxyphenyl)-2-(6-(4-(4-methylpiperazin-1-yl)phenyl)-4-exoquinazolin-3(4H)-yl)-N-(thiazol-2-yl)acetamide], the IC50 came to 17 nM against EGFR L858R/T790M and 35 nM on EGFR L858R. In addition, the GI50 in test [1] (setting [2]) is 2100 nM; in test [1] (setting [3]), 6460 nM.

For `COc1cccc(F)c1C(C(=O)Nc1nccs1)n1cnc2ccc(-c3ccc(C4CCN(C)CC4)cc3)cc2c1=O` (centres unmarked) [Compound 078], the IC50 at EGFR L858R/T790M turned out to be 1 nM; against EGFR L858R, 8 nM. The results for the GI50 in test [1] (setting [2]) and in test [1] (setting [3]) were 620 nM and 4200 nM, respectively.

As for `CN1CCC(c2ccc(-c3ccc4ncn(C(C(=O)Nc5ccccn5)c5cc(F)ccc5O)c(=O)c4c3)cc2)CC1` (centres unmarked) [Compound 082, 2-(5-Fluoro-2-hydroxyphenyl)-2-(6-(4-(1-methylpiperidin-4-yl)phenyl)-4-oxoquinazolin-3(4H)-yl)-N-(pyridin-2-yl)acetamide; hydrochloride], the IC50 against EGFR L858R/T790M worked out at 0.2 nM; on EGFR L858R, 1 nM. Besides, the GI50 in test [1] (setting [2]) was 2 nM; in test [1] (setting [3]), 230 nM.

For `CN1CCC(c2ccc(-c3ccc4ncn(C(C(=O)Nc5nccs5)c5cc(F)ccc5O)c(=O)c4c3F)cc2)CC1` (centres unmarked) [Compound 083, 2-(5-Fluoro-2-hydroxyphenyl)-2-(5-fluoro-6-(4-(1-methylpiperidin-4-yl)phenyl)-4-oxoquinazolin-3(4H)-yl)-N-(thiazol-2-yl)acetamide], the values for the IC50 at EGFR L858R/T790M and against EGFR L858R were 0.1 nM and 0.2 nM, respectively. Further, the GI50 was 9 nM in test [1] (setting [2]) and 40 nM in test [1] (setting [3]).

As to `CN1CCC(c2ccc(-c3ccc4ncn(C(C(=O)Nc5nccs5)c5cc(F)ccc5O)c(=O)c4n3)cc2)CC1` (centres unmarked) [Compound 084, 2-(5-Fluoro-2-hydroxyphenyl)-2-(6-(4-(1-methylpiperidin-4-yl)phenyl)-4-oxopyrido[3,2-d]pyrimidin-3(4H)-yl)-N-(thiazol-2-yl)acetamide], the IC50 amounted to 0.1 nM on EGFR L858R/T790M and 0.4 nM on EGFR L858R. Also, the GI50 in test [1] (setting [2]) came out at 48 nM; in test [1] (setting [3]), 860 nM.

`CN1CCN(c2ccc(-c3ccc4ncn(C(C(=O)Nc5nccs5)c5c(O)cccc5F)c(=O)c4c3)cc2)CC1` (centres unmarked) [Compound 085, 2-(2-Fluoro-6-hydroxyphenyl)-2-(6-(4-(4-methylpiperazin-1-yl)phenyl)-4-oxoquinazolin-3(4H)-yl)-N-(thiazol-2-yl)acetamide]: the IC50 on EGFR L858R/T790M came to 3 nM; against EGFR L858R it was 6 nM. Besides, the results for the GI50 in test [1] (setting [2]) and in test [1] (setting [3]) were 66 nM and 5770 nM, respectively.

On to `CN1CCC(c2ccc(-c3ccc4ncn(C(C(=O)Nc5nccs5)c5c(O)cccc5F)c(=O)c4c3)cc2)CC1` (centres unmarked) [Compound 086, 2-(2-Fluoro-6-hydroxyphenyl)-2-(6-(4-(1-methylpiperidin-4-yl)phenyl)-4-oxoquinazolin-3(4H)-yl)-N-(thiazol-2-yl)acetamide], for which the IC50 at EGFR L858R/T790M was 0.4 nM; on EGFR L858R, 2 nM. Moreover, the GI50 in test [1] (setting [2]) stood at 33 nM; in test [1] (setting [3]) it was 3160 nM.
